Data reported in ChEMBL document CHEMBL1141360, “Kadsuralignans H-K from Kadsura coccinea and their nitric oxide production inhibitory effects” (J Nat Prod, 2007).
pIC50: −log10 of the molar value. Active and inactive are the calls of the source. No cut-off for these calls is given here.

Key:
RAW264.7 [1] = assay: Inhibition of LPS and INF-gamma-induced nitric oxide production in mouse RAW264.7 cells after 16 hrs; conditions: for pIC50: RAW264.7, 16 h
RAW264.7 [2] = assay: Inhibition of LPS-induced nitric oxide production in mouse RAW264.7 cells; type: functional, cell-based

Row | pIC50 (RAW264.7 [1]) | SMILES | pIC50 (RAW264.7 [2]) | Activity (RAW264.7 [1])
1 | 4.71 | COc1cc([C@@H]2c3c(cc(OC)c(OC)c3O)C[C@@H](C)[C@H]2C)cc2c1OCO2 [KADSURALIGNAN H] |  | 
2 | 4.06 | C/C=C(\C)C(=O)Oc1c(OC)c(OC)cc2c1-c1c(cc3c(c1OC)OCO3)[C@H](O)[C@H](C)[C@H](C)C2 [KADSURALIGNAN I] |  | 
3 |  | C/C=C(/C)C(=O)O[C@H]1C2=CC(=O)C(OC)=C(OC)[C@@]23COc2c4c(cc(c23)[C@H](OC(C)=O)[C@H](C)[C@]1(C)O)OCO4 |  | inactive
4 | 4.47 | CCC(C)C(=O)Oc1c(OC)c(OC)cc2c1-c1c(cc3c(c1OC)OCO3)[C@H](O)[C@H](C)[C@H](C)C2 (stereo partly drawn) [KADSURALIGNAN J] |  | 
5 |  | COC1=C(OC)[C@]23COc4c5c(cc(c42)[C@H](OC(=O)c2ccccc2)[C@H](C)[C@](C)(O)[C@@H](OC(C)=O)C3=CC1=O)OCO5 |  | inactive
6 |  | COc1cc2c(c(OC(=O)c3ccccc3)c1OC)-c1c(cc3c(c1OC)OCO3)[C@H](O)[C@H](C)[C@H](C)C2 |  | inactive

Row | SMILES | pIC50 (RAW264.7 [1]) | pIC50 (RAW264.7 [2]) | Activity (RAW264.7 [1])
7 | O=c1c(O)c(-c2ccc(O)c(O)c2)oc2cc(O)cc(O)c12 [QUERCETIN] | 4.60 | 4.57 | 
